# Results published in patent publication US20240368644A1, “METHODS TO PRODUCE THERAPEUTIC FORMULATIONS COMPRISING HYDROXYBUTIRATE AND HYDROXYVALERATE, THERAPEUTIC FORMULATIONS AND USES THEREOF” (PHB Industrial S.A., priority 2021, published 2024).
# Experiments:
# [1] = Ketotic efficiency (net elevation of circulating ketones over time per dose); assay type: in vivo, human; conditions: person at rest, concentration of DBHB + DBHV in composition with D-1,3BD; for 1 hour ketotic efficiency: 1 hour post-administration; for 2 hours ketotic efficiency: 2 hours post-administration
# Source text: (§1) Examples include using a composition including D-BHB, D-BHV, and D-1,3BD in a subject at rest. The ketotic efficiency represents the net elevation of circulating ketones a ketone supplement affects over time in an individual. Ketotic efficiency may be represented as:
# where mMol/L is the concentration of circulating p-hydroxybutyrate in the blood, g is the total dose of the combined D-BHB, D-BHV, and D-1,3,BD in grams, kg is the mass of the individual in kilograms, and t is an increment of time in minutes.
# The ketotic efficiency of the D-BHB, D-BHV, and D-1,3BD blend measured over of one hour in this exemplary study is 43% to 104% greater than the administration of pure (D)-1,3 butanediol or pure (D)-β-hydroxybutyric acid alone, respectively. While this example pertains to a fasted subject at rest, the relative utility of blended vs pure constituents has also been observed in fed and active subjects.
# FIG. 2 represents the expected ketosis for a person at rest with a 0.13 g/kg dose of (D)-β-hydroxybutyric acid, (D)-β-hydroxyvaleric acid, and (D)-1,3 butanediol over time for the periods shown. […] Administration of examples in accordance with the present disclosure are expected to cause efficient, prolonged rises in circulating blood ketone levels in a manner that is unexpected based on the current literature. As shown in the following table, the highest efficiency at both 1 and 2 hours post-administration was obtained at 45% D-BHB+D-BHV (0.96:0.04) to 55% D-1,3BD and the lowest efficiency was observed when administering D-BHB or D-1,3BD alone.
# [2] = Increase in circulating ketone level after administration of D-BHB, D-BHV and D-1,3BD in various ratios, subjects at rest; assay type: in vivo, human; conditions: for Max change in mMol/L (increase in circulating ketone level): 10 g dose, three human subjects at rest, composition given as % D-BHB acid; for prolonged rise of blood ketone levels: based on measured plasma levels of FIG. 1
# Source text: as §1
# As illustrated by the examples of FIG. 1, these exemplary compositions can advantageously elevate circulating ketones by approximately two times greater than other known compositions. Such a composition can sustain ketonemia for longer than either D-BHB or D-1,3BD can when ingested alone by a subject of a given weight as shown by the 100% line (i.e., contains D-BHB, but not D-1,3BD) and the 0% line (i.e., contains only D-1,3BD, but not D-BHB).
# As shown in the following table, the increase in circulating ketone level with a 10 g dose in three human subjects at rest was maximal at between 45-55% D-BHB in the tested compositions.
# [3] = tested on: patients with glucose transporter 1 deficiency syndrome (GLUT1); conditions: cited from earlier work
SMILES,1 hour ketotic efficiency [1] [kg·mmol·min/g/L],2 hours ketotic efficiency [1] [kg·mmol·min/g/L],Max change in mMol/L (increase in circulating ketone level) [2] [mmol/L],prolonged rise of blood ketone levels [2],decrease of paroxysmal non-epileptic manifestations [3] [%]
"CC(O)CCO (stereo not drawn) [0%, (D)-1,3 butanediol]",266,462,0.8,does not cause a prolonged rise of blood ketone levels,–
"CC(O)CC(=O)O (stereo not drawn) [100%, (D)-β-hydroxybutyric acid]",335,566,0.9,A similar result,–
"CCCCCCC(=O)OCC(COC(=O)CCCCCC)OC(=O)CCCCCC [triheptanoin, Triheptanoin]",–,–,–,–,90
